Positions count from the first letter of the chain named.

The record followed here is paper PMC8585119, “MATE-Type Proteins Are Responsible for Isoflavone Transportation and Accumulation in Soybean Seeds” (International Journal of Molecular Sciences, 2021).

Holding throughout (assay): yeast uptake assay, UPLC of cell extract versus empty vector
What all share (type): cell-based
Holding throughout (settings): fed as 200 uM mixture of genistein, daidzein and glycitein; PBS pH 7.4, 30 °C, overnight/24 h; whole yeast cells

For one assay, the target named is T1, GmMATE2^W05 (Glycine soja, UniProt A0A191UP89).
T1 construct: gene MATE2; full-length CDS in pGBKT7 without GAL4 BD, ADH1 promoter, in yeast Y2HGold; no tag stated
T1 sequence (A0A191UP89 1-496): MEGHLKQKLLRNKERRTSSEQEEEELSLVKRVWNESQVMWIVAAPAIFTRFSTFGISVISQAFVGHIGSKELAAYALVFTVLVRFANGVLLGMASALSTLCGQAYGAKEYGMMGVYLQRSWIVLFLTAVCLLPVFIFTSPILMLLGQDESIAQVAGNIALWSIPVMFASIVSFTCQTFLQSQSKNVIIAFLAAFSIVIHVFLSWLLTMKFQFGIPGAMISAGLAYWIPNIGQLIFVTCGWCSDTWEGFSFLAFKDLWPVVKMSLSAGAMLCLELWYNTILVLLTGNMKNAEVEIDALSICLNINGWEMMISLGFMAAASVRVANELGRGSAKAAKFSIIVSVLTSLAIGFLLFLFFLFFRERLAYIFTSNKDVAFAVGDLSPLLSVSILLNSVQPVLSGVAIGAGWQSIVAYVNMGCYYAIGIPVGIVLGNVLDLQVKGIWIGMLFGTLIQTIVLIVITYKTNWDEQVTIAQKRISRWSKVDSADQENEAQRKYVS

Another assay has as its target T2, GmMATE1^W05 (Glycine soja, UniProt A0A191UP88).
T2 construct: gene MATE1; full-length CDS in pGBKT7 without GAL4 BD, ADH1 promoter, in yeast Y2HGold; no tag stated
T2 sequence (A0A191UP88 1-495): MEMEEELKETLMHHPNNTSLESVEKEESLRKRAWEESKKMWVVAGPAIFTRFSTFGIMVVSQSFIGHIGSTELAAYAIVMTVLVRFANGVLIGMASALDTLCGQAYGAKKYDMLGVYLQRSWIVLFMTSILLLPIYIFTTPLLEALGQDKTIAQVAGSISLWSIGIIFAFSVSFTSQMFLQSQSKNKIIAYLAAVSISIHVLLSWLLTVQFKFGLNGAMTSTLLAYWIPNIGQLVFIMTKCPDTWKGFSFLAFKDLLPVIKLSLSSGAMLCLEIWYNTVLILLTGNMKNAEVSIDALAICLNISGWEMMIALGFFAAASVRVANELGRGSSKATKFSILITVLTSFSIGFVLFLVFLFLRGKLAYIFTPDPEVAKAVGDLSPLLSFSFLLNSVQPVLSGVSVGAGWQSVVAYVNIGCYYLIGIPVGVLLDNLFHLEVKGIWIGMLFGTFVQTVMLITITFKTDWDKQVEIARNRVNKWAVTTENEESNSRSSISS

The target of the next assay is T3, GmMATE2^C08 (Glycine max, UniProt I1N8G8).
T3 construct: gene LOC100796360; full-length CDS in pGBKT7 without GAL4 BD, ADH1 promoter, in yeast Y2HGold; no tag stated
T3 sequence (I1N8G8 1-496): T1 sequence (A0A191UP89 1-496) with S483N

The target in the next assay is T4, GmMATE1^C08 (Glycine max, UniProt I1N8G7).
T4 construct: gene LOC100775619; full-length CDS in pGBKT7 without GAL4 BD, ADH1 promoter, in yeast Y2HGold; no tag stated
T4 sequence (I1N8G7 1-495): T2 sequence (A0A191UP88 1-495) with L206V, S330N

`O=c1c(-c2ccc(O)cc2)coc2cc(O)ccc12` [daidzein]: the “yeast uptake assay, UPLC of cell extract versus empty vector” value at GmMATE2^W05 was “allelic forms from either the cultivated soybean C08 or the wild soybean W05 exhibited similar”; at GmMATE1^W05 it was “allelic forms from either the cultivated soybean C08 or the wild soybean W05 exhibited similar”; on GmMATE2^C08 it was “yeasts expressing GmMATE1 and GmMATE2 significantly accumulated more of all three metabolites”; at GmMATE1^C08 it was “yeasts expressing GmMATE1 and GmMATE2 significantly accumulated more of all three metabolites”.

`O=c1c(-c2ccc(O)cc2)coc2cc(O)cc(O)c12` [genistein]: the “yeast uptake assay, UPLC of cell extract versus empty vector” value at GmMATE2^W05 is “allelic forms from either the cultivated soybean C08 or the wild soybean W05 exhibited similar”; on GmMATE1^W05, “allelic forms from either the cultivated soybean C08 or the wild soybean W05 exhibited similar”; at GmMATE2^C08 it was “yeasts expressing GmMATE1 and GmMATE2 significantly accumulated more of all three metabolites”; on GmMATE1^C08, “yeasts expressing GmMATE1 and GmMATE2 significantly accumulated more of all three metabolites”.
